The source of these data is patent publication US20240327364A1, “THERAPEUTIC TARGETING OF GPR68 TO INDUCE FERROPTOSIS” (University Of Maryland, Baltimore, priority 2023, published 2024).

The target of one test is T1, AURKB (Homo sapiens, UniProt Q96GD4).
T1 construct: purchased DiscoveRx (Fremont, CA)
As to the kind of experiment: KinomeScan. The class given is binding. The settings on record: read-out: % Control.

In a further test the target is T2, BMPR2 (Homo sapiens, UniProt Q13873).
T2 construct: purchased DiscoveRx (Fremont, CA)
The test is described as follows: KinomeScan. The class given is binding. The settings on record: read-out: % Control.

The target of a further test is T3, ERBB2 (Homo sapiens, UniProt P04626).
T3 construct: purchased DiscoveRx (Fremont, CA)
The test is described as follows: KinomeScan. The class given is binding. As to conditions: read-out: % Control.

Another test addresses T4, GSK3B (Homo sapiens, UniProt P49841).
T4 construct: purchased DiscoveRx (Fremont, CA)
As to the kind of experiment: KinomeScan. In kind it is binding. As to conditions: read-out: % Control.

A further test concerns the target T5, KIT(A829P) (Homo sapiens, UniProt P10721, A829P).
T5 construct: purchased DiscoveRx
The test is described as follows: KinomeScan. In kind it is binding. As to conditions: read-out: % Control.

The target in another test is T6, MAP3K1 (Homo sapiens, UniProt Q13233).
T6 construct: purchased DiscoveRx
As to the kind of experiment: KinomeScan. In kind it is binding. The settings on record: read-out: % Control.

A further test has as its target T7, NEK4 (Homo sapiens, UniProt P51957).
T7 construct: purchased DiscoveRx
The test is described as follows: KinomeScan. As to conditions: read-out: % Control. The class given is binding.

A further test addresses T8, PCTK3 (Homo sapiens, UniProt Q07002).
T8 construct: purchased DiscoveRx
As to the kind of experiment: KinomeScan. In kind it is binding. As to conditions: read-out: % Control.

Another test concerns the target T9, PIK3CA(Q546K) (Homo sapiens, UniProt P42336, Q546K).
T9 construct: purchased DiscoveRx (Fremont, CA)
The test is described as follows: KinomeScan. In kind it is binding. The settings on record: read-out: % Control.

For the next test, the target named is T10, ROS1 (Homo sapiens, UniProt P08922).
T10 construct: purchased DiscoveRx (Fremont, CA)
As to the kind of experiment: KinomeScan. The settings on record: read-out: % Control. In kind it is binding.

For a further test, the target named is T11, TXK (Homo sapiens, UniProt P42681).
T11 construct: purchased DiscoveRx
As to the kind of experiment: KinomeScan. In kind it is binding. As to conditions: read-out: % Control.

The target of the next test is T12, GAL2 (Homo sapiens, UniProt O43603).
T12 construct: host or cells: Chem-1 cells expressing Gα15
As to the kind of experiment: GPCR Profiler. The class given is cell-based.

The target of another test is T13, GPR43 (Homo sapiens, UniProt O15552).
T13 construct: host or cells: Chem-1 cells with promiscuous Gα15
As to the kind of experiment: GPCR Profiler. In kind it is cell-based.

The next test addresses T14, IP1 (Homo sapiens, UniProt P43119).
T14 construct: host or cells: Chem-1 cells with promiscuous Gα15
The test is described as follows: GPCR Profiler. In kind it is cell-based.

Another test has as its target T15, NK1 (Homo sapiens, UniProt P25103).
T15 construct: host or cells: Chem-1 cells expressing Gα15
The test is described as follows: GPCR Profiler. The class given is cell-based.

In the next test the test system is MCF7. The test is described as follows: Cell Titer-Glo viability, Breast adenocarcinoma. The class given is cell-based. On the procedure:
(§1) OGM2 kills wide variety of cancer cell types. Cell sensitivity can be classified in to Very Sensitive (LC50<2 μM), Sensitive (LC50=2 to 10 μM), Mildly Sensitive (LC50>10 μM), and Refractory (no killing at 10 μM). The listed established cell were incubated with OGM2 at 2 μM or 10 μM for 72 hours under standard cell culture conditions, and relative cell number was assessed using Cell Titer-Glo Luminescent Cell Viability Assay (Promega™) following the manufacturer's instructions. Luminescence was determined using a Cytation 5 reader and Gen5 software package (BioTek™).
(§2) Cancer cells, which are very sensitive to killing by OGM2 (LCs <2 μM), with reported mRNA expression of GPR68 and the related proton sensing receptor GPR4. LC50's (concentrations causing 50% lethality) were determined using CellTiter-Glo (Promega™, G7570). Cells were plated in 12-well plates (CELLTREAT Scientific Products, 229112) in 1 ml of DMEM with high glucose, GlutaMAX, HEPES, or RPMI 1640 with Penicillin-Streptomycin (ThermoFisher™, 10564029, 11875119 and 15140122) and 10% FBS. Cells were incubated overnight at 37° C. in 5% CO2. Then 1 mL of fresh media was added with DMSO, OGM, or positive control (Erastin; APExBIO Technology, LLC, B1524) and cells incubated for 3 days. On the third day, all media was removed, cells were rinsed with 1×PBS, PBS was removed, and 200 μL of 1× Passive Lysis Buffer (Promega™, E1941) was added to each well. […]. Subsequently, 20 μL of lysate was added to 100 μL CellTiter-Glo™ reagent on a LUMITRAC 200 plate (Greiner™ bio-one, 82050-726). Plates were briefly spun down and read on a GloMax-Multi Detection System (Promega™).
(§3) The cells listed in the tables above were incubated with OGM2 at 2 μM or 10 μM for 72 hours under standard cell culture conditions, and relative cell number was assessed using Cell Titer-Glo Luminescent Cell Viability Assay (Promega™) following the manufacturer's instructions. Luminescence was determined using a Cytation 5 reader and Gen5 software package (BioTek™). RNA expression of GPR68 and GPR4 in the corresponding cancer cell lines are listed, according to the publicly available The Human Protein Atlas version 22.0 and Ensembl version 103.38 (see proteinatlas.org). The consensus normalized expression value (“nTPM”=normalize transcript per million) was calculated as the maximum nTPM value for each gene in the two data sources.
(Cellular ATP, detected with luciferase, serves as a proxy for viable cell number.)

A further test relates to MDA-MB-231. As to the kind of experiment: Cell Titer-Glo viability, Breast adenocarcinoma. The class given is cell-based. On the procedure: as §1, §2, §3
For the next test, the system named is MDA-MB-436. As to the kind of experiment: Cell Titer-Glo viability, Breast adenocarcinoma. In kind it is cell-based. On the procedure:
as §1, §2, §3

The subject of the next test is GL261Luc. As to the kind of experiment: Cell Titer-Glo viability, Glioblastoma. In kind it is cell-based. On the procedure:
as §1, §2, §3

In another test the test system is KR-158-luc. The test is described as follows: Cell Titer-Glo viability, Glioblastoma. In kind it is cell-based. On the procedure: as §1, §2, §3
Another test relates to U-138 MG. The test is described as follows: Cell Titer-Glo viability, Glioblastoma. In kind it is cell-based. The settings on record: 72 hours. On the procedure:
as §1, §2, §3

The subject of the next test is U-87 MG. The test is described as follows: Cell Titer-Glo viability, Glioblastoma. The class given is cell-based. The settings on record: 72 hours. On the procedure: as §1, §2, §3

T12 sequence (O43603 whole entry): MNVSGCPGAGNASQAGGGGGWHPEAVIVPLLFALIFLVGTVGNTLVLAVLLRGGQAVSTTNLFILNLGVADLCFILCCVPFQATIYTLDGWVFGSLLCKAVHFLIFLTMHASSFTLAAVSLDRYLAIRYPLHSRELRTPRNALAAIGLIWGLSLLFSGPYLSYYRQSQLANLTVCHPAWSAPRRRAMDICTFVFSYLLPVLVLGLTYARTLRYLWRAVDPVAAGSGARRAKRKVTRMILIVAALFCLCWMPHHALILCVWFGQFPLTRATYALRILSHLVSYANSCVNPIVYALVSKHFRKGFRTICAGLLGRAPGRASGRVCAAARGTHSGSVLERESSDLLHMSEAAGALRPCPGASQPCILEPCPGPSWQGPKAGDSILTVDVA
T15 sequence (P25103 whole entry): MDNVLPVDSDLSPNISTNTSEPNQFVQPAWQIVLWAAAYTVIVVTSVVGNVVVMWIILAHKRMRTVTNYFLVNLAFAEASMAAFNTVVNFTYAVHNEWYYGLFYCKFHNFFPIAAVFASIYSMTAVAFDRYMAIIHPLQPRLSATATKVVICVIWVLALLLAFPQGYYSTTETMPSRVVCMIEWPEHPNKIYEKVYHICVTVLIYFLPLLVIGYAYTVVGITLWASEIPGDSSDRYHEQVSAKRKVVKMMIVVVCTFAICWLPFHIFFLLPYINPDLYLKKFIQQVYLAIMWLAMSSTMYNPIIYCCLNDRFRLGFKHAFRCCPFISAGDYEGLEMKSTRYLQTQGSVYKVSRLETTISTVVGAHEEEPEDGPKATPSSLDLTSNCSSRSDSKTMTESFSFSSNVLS
T14 sequence (P43119 whole entry): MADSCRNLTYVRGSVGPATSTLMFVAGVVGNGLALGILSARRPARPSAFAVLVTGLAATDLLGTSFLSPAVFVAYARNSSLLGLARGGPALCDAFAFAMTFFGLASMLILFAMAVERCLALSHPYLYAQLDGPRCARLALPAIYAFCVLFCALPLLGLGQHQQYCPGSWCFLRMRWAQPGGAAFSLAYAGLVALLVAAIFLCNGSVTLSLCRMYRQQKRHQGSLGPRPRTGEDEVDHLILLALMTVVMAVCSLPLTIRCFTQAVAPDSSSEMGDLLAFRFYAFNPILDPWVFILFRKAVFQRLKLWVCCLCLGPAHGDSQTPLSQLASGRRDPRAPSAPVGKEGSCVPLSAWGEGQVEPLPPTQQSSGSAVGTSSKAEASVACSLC
T13 sequence (O15552 whole entry, species assumed): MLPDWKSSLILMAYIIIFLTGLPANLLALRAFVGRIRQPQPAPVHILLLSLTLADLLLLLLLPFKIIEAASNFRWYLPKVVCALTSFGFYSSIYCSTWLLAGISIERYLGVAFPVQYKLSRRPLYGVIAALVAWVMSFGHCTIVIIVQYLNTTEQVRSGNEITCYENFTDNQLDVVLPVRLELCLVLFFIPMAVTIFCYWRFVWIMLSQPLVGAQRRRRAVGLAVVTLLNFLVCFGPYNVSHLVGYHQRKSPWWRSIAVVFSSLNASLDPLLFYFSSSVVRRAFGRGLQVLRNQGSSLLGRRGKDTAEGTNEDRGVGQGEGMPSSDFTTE
T8 sequence (Q07002 whole entry): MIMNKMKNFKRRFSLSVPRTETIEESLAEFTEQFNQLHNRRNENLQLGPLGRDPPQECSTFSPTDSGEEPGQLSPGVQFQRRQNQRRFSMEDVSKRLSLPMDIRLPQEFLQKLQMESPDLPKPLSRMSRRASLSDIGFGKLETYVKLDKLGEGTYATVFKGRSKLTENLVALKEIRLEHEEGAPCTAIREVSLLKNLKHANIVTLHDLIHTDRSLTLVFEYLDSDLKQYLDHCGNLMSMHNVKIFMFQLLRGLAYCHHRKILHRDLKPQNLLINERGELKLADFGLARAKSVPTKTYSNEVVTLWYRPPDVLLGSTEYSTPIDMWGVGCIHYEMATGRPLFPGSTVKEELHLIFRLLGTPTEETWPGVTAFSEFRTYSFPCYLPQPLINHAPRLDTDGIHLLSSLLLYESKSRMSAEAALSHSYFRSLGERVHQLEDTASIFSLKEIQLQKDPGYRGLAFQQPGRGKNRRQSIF
T10 sequence (P08922 28-2347): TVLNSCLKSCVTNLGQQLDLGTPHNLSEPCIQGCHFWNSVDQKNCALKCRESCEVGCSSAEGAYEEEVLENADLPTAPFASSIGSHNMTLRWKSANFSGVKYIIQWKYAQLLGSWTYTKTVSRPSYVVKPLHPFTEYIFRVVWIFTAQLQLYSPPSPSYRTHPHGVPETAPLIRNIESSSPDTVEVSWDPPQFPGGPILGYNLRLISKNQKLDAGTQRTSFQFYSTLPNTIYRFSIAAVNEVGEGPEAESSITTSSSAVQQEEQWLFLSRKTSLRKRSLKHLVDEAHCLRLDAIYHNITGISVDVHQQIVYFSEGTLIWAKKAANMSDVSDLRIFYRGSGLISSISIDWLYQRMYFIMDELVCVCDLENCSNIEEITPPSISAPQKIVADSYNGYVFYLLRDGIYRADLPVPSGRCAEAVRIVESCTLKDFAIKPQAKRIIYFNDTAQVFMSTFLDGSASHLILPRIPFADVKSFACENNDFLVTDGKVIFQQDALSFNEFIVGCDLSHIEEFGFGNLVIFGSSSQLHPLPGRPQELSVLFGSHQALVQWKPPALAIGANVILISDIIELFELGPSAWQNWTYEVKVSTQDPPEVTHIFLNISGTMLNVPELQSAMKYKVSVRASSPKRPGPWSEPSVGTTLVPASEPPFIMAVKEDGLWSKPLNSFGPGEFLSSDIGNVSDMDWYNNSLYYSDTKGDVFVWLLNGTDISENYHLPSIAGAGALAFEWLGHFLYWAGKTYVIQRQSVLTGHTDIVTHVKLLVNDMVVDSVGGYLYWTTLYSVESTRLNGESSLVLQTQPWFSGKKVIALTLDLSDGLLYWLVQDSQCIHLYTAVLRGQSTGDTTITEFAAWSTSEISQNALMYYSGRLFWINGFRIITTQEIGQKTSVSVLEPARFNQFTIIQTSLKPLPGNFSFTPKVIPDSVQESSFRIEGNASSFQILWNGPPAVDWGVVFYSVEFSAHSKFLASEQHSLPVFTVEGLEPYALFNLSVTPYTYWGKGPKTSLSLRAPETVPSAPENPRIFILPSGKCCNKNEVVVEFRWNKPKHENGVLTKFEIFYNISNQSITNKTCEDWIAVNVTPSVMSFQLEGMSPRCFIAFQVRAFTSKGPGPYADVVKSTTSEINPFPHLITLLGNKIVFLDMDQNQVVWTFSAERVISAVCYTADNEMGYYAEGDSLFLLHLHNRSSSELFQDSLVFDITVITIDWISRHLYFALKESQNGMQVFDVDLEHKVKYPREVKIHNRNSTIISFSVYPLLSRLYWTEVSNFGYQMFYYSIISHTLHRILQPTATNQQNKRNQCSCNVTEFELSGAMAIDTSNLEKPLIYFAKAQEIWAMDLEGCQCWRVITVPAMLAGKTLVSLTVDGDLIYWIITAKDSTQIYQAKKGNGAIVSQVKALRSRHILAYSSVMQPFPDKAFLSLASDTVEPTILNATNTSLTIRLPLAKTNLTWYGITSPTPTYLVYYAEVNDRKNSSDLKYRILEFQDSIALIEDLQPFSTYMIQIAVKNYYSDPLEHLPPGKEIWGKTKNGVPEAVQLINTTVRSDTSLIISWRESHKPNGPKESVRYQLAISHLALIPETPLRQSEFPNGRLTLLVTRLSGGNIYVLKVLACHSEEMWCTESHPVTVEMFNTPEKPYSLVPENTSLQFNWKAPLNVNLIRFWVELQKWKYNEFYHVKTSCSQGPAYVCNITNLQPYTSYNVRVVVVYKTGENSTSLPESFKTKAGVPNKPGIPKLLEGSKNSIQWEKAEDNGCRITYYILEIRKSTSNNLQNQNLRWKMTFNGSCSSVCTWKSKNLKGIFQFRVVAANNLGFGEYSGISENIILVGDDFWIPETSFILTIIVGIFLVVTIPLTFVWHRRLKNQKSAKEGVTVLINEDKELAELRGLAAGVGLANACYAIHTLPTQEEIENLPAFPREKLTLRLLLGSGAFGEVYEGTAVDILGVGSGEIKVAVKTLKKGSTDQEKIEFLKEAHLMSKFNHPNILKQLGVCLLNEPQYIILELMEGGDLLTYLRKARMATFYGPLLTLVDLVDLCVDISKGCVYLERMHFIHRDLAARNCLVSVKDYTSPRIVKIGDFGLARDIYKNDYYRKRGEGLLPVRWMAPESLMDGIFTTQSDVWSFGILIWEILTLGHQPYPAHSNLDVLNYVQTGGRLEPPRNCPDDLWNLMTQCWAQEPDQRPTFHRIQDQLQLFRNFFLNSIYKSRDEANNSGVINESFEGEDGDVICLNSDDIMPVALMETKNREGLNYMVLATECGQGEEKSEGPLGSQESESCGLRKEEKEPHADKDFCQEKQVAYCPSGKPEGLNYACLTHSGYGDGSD
T11 sequence (P42681 whole entry): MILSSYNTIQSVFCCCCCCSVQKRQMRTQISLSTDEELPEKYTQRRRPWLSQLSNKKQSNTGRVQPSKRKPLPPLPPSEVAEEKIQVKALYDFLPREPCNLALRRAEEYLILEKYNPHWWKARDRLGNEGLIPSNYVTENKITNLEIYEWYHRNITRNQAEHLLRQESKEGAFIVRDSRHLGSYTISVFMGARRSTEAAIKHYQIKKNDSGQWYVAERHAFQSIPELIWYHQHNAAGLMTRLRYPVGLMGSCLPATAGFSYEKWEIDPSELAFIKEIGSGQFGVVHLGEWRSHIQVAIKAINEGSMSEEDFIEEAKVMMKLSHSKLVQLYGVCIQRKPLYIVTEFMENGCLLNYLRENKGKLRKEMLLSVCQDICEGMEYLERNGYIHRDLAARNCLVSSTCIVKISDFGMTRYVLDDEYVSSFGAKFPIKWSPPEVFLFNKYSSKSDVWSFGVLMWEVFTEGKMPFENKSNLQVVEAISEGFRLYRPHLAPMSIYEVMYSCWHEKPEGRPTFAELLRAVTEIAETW

Consider `CCc1ccc2c(c1)C1(NN=C(c3cccc4ccccc34)S1)C(=O)N2` (stereo not drawn) [OGM1, 5-ethyl-5′-naphthalen-1-ylspiro[1H-indole-3,2′-3H-1,3,4-thiadiazole]-2-one], for which the remaining binding at 10 µM on AURKB came to 86%; on BMPR2 it was 92%; at ERBB2 it was 65%; at GSK3B, 83%; on KIT(A829P), 72%; at MAP3K1, 72%. In addition, the remaining binding at 10 µM at NEK4 was 100%; on PCTK3 it was 99%; at PIK3CA(Q546K) it was 95%; on ROS1, 100%; at TXK, 99%. Also, the Antagonism was 1 at GAL2 (10 uM), 6.4 at GPR43 (10 uM), −2 at IP1 (10 uM) and −1.4 on NK1 (10 uM). For the same compound, the Agonism on GAL2 (12.5 uM) is 0.4; at GPR43 (12.5 uM), −0.2; at IP1 (12.5 uM), −0.5; at NK1 (12.5 uM), −1.5.

As to `CCc1ccc2c(c1)C1(NN=C(c3ccccc3)S1)C(=O)N2` (stereo not drawn) [OGM2], the Class result in the test on MCF7 was “Sensitive (Sensitive (LC50=2 to 10 μM))”; with MDA-MB-231, “Sensitive (Sensitive (LC50=2 to 10 μM))”; in the test on MDA-MB-436, “Sensitive (Sensitive (LC50=2 to 10 μM))”; with GL261Luc it was “Very Sensitive (Very Sensitive (LC50<2 μM))”; with KR-158-luc it was “Very Sensitive (Very Sensitive (LC50<2 μM))”. Besides, the “% Survival 2 μM OGM” value with MCF7 (72 hours) is 50.6%; in the test with MDA-MB-231 (72 hours), 70.1%; in the test on MDA-MB-436 (72 hours), 52.6%; with GL261Luc (72 hours), 1.8%; in the test with KR-158-luc (72 hours), 11.4%; in the test on U-138 MG it was 40.3%. Further, the “% Survival 2 μM OGM” value in the test with U-87 MG is 21.3%. The “% Survival 10 μM OGM” value in the test on MCF7 (72 hours) turned out to be 25.2%; with MDA-MB-231 (72 hours) it was 48.1%; in the test on MDA-MB-436 (72 hours) it was 35.7%; in the test with GL261Luc (72 hours), 0.1%; in the test on KR-158-luc (72 hours), 4.7%; in the test on U-138 MG, 35.0%. The “% Survival 10 μM OGM” value in the test on U-87 MG is 10.1%. The CC50 in the test on MCF7 (Homo sapiens, MCF7, 72 hours, read-out: LC50 (the source's name)) was 2000 to 10000 nM; in the test with MDA-MB-231 (Homo sapiens, MDA-MB-231, 72 hours, read-out: LC50 (the source's name)), 2000 to 10000 nM; in the test on MDA-MB-436 (Homo sapiens, MDA-MB-436, 72 hours, read-out: LC50 (the source's name)) it was 2000 to 10000 nM; in the test on GL261Luc (Mus musculus, GL261-Luc, 72 hours, read-out: LC50 (the source's name)) it was less than 2000 nM; with KR-158-luc (Mus musculus, 72 hours, read-out: LC50 (the source's name)), less than 2000 nM; with U-138 MG (Homo sapiens, U138-MG, read-out: LC50 (the source's name)), less than 2000 nM. The CC50 in the test on U-87 MG (Homo sapiens, U-87 MG, read-out: LC50 (the source's name)) is less than 2000 nM.
